Assay results taken from US20140142140A1, “PHARMACEUTICAL COMPOSITION FOR NEUROLOGICAL DISORDERS” (priority 2011, published 2014).

Columns and labels:
[1] = system: patients with reading / learning difficulties; assay: Case reports, Reading Disorder (Example 2); assay type: in vivo, human
Text: They noticed greater contrast when reading. This had reduced their dependency upon spectacles which they had relied on for many years. […] Patient described an unexpected improvement in the clarity and contrast of the words and letters, further commenting on the improvement in their ability to both see and comprehend the words simultaneously. Patient also described a reduction in the instability or movement of the words on the page which had always been experienced when reading. Also further commented on the subjective improvement in vision, with an apparent improved depth perception. […] Patient noticed greater contrast in the text when reading and this had reduced their dependency upon spectacles which they had relied on for many years. […] The patient has been able to sustain employment with considerable effort. Reading had always been effortful and largely unrewarding. Patient had described difficulties tracking along the text being frequently distracted by the lines above and below becoming lost on the page as well as having little recall or comprehension of what they had read.

[2] = system: patients with autism / ASD / communication disorder; assay: Case reports, Autism and other Pervasive Development Disorders (Example 6); assay type: in vivo, human; settings: for communication, family relationships, behavioural disturbance: 1 mg daily increased to 3 mg in divided doses daily
Text: Patient 6A: Adult, diagnosed in childhood with autism and ADHD. A long history of behavioural disturbance with frequent episodes of violence despite treatment with high-dose antipsychotic medication. […] The high-dose antipsychotic medication has been reduced without any associated loss of recent benefit. […] A history of behavioural disturbance and educational impairment. […] Patient 6C was an adult, diagnosed in childhood with autism and ADHD with a history of behavioural disturbance and educational impairment. […] Patient 6D: Adult, diagnosed in childhood with autism, ADHD and antisocial personality traits. […] Patient C's conversation became more appropriate and consistent together with reported improvements in significant relationships. […] Patient 6E was an adult, diagnosed with communication disorder and major depression. […] Patient 6F was an adult with ASD. […] The patient's conversation became more appropriate and consistent and improvements in significant relationships were reported. A reduction in the reliance on alcohol to alleviate anxiety in social situations was observed. […] Sodium valproate was withdrawn and improvement was noted. […] Patient 6G was as adult, diagnosed in childhood with ASD. […] Sodium valproate was withdrawn. […] This has also been associated with improvements in reading and verbal understanding. These benefits have been sustained in some situations for three years. Although difficult to be objective, there seems to be good evidence of ongoing improvement. […] Improvements in coordination, in fine and gross motor control have been reported and improvement in gait which frequently is a significant issue for individuals with autistic disorders.

[3] = system: mood stabilisation or epileptic symptoms or events; settings: per day; cited from earlier work

In the case of `O=C1NC(=O)C(c2ccccc2)(c2ccccc2)N1` [phenyloin, 5,5-diphenylhydantoin], the “visual acuity / contrast when reading” value ([1]; Patient 2A, 1 mg daily) is reported as “visual acuity had appeared to improve”, the “benefits at a higher dose” value ([1]; Patient 2A) is reported as “not sustained at a higher dose” and the “reading, pseudo word component of WAIT” value ([1]; Patient 2B, 1 mg sub lingual dose) is reported as “improved ability to read”. For the same molecule, the “benefits at increased dose” value ([1]; Patient 2B, dose increased to 50 mg) was “beneficial effects were lost”, the “visual acuity / contrast in the text when reading” value ([1]; Patient 2C, 1 mg daily) was “visual acuity had appeared to improve” and the “benefits at a higher dose” value ([1]; Patient 2C) was “not sustained at a higher dose”. The ability to read ([1]; Patient 2D, 0.5 mg dose) was “significant improvement in their ability to read with less effort”, the “social interaction and conversation” value ([2]; Patient 6A, autism and ADHD, single test dose sublingual 1 mg) was “immediate improvement noted in their ability to socially interact and sustain limited conversation” and the “social interaction, home and day respite centre” value ([2]; Patient 6A, 4 mg sustained release daily) was “improvement was consistently noted”. The behaviour after withdrawal ([2]; Patient 6A, withdrawal and recommencement) was “return of the behavioural disturbance which abated on recommencement”, the “communication, family relationships, behavioural disturbance” value ([2]; Patient 6B) was “sustained improvement in communication and family relationships together with a reduction in behavioural disturbance” and the “improvements at a higher dose or withdrawn” value ([2]; Patient 6B) was “Improvements were lost”. The “communication, family relationships, behavioural disturbance” value ([2]; Patient 6C) was “sustained improvement in communication and family relationships together with a reduction in behavioural disturbance”, the “improvements at a higher dose or withdrawn” value ([2]; Patient 6C) was “improvements were lost” and the “behaviour, verbal and non-verbal communication” value ([2]; Patient 6D, 2 mg daily) was “Significant improvement in behaviour, verbal and non-verbal communication”. The “benefit of increased dose” value ([2]; Patient 6D, 4 mg) was “No additional benefit”, the “non-verbal and verbal communication” value ([2]; autistic spectrum and social communication disorders, Ultra low dose, frequently below 5 mg) was “frequent instant improvement in both their non-verbal and verbal communication” and the “duration of sustained benefits in some situations” value ([2]; low dose) was “three years”. The “symptoms of Social Communication Disorder” value ([2]; ultra low dose) was “significant improvements in many patients” and the “Minimum typical dose/day effective for mood stabilisation or treatment of epileptic symptoms or events” value [3] was 200 mg.
